{
  "source": "patent US5597809A",
  "about": "“Treatment of optic neuritis” (priority 1994, dated 1997)",
  "key": {"[1]": {"test_system": "retinal ganglion cells", "assay": "Toxicity of other drugs to retinal ganglion cells and prevention by MK801 (FIG. 8)", "assay_type": "cell-based", "procedure": "FIG. 8 is a bar graph showing prevention of drug toxicity by the protective agent, MK801. […] Retinal ganglion cells were incubated for 24 hours with either drug alone (5-fluorouracil (5-FU), Defororixamine, and Tamoxifenor drug +MK801, followed by measurement of cell viability.\nAs discussed above, other drugs are known to cause optic neuropathy (see Table 13). However, the mechanism of drug toxicity has not been defined. Experiments were carried out to determine whether NMDA antagonists prevented retinal cell damage induced by such drugs. […] The cytotoxic effect of these drugs on retinal ganglion cells was prevented by the NMDA antagonist, MK801."}, "[2]": {"test_system": "retinal ganglion cells", "assay": "Attenuation of ethambutol toxicity by NMDA antagonists and a calcium channel blocker (retinal ganglion cell viability, FIG. 3)", "conditions": "for retinal ganglion cell viability, drug alone: no ethambutol; for protection of retinal ganglion cells from ethambutol-mediated toxicity: 24 hours"}, "[3]": {"test_system": "M. tuberculosis and M. avium isolates", "assay": "Minimal inhibitory concentration of ethambutol by radiometric Bactec technique with and without protective agents", "assay_type": "cell-based, Mycobacterium tuberculosis; Mycobacterium avium"}, "[4]": {"test_system": "retinal cultures", "assay": "Endogenous glutamate in retinal cultures by HPLC", "assay_type": "cell-based, rat", "conditions": "overnight incubation with ethambutol", "procedure": "The role of endogenous glutamate in ethambutol toxicity was evaluated. Endogenous glutamate in retinal cultures was 26±2 μM (mean ±standard deviation, n=12) (as measured by high pressure liquid chromatography).\nThis level of endogenous glutamate was not affected by overnight incubation with ethambutol. […] Nevertheless, experiments were carried out to determine whether endogenous glutamate was required for the expression of ethambutol toxicity in these preparations. […] The endogenous glutamate was specifically degraded by the addition of the enzyme glutamate-pyruvate transaminase (GPT) in the presence of the cosubstrate pyruvate."}, "[5]": {"test_system": "retinal ganglion cells", "assay": "cells", "conditions": "Rattus norvegicus, 24 h, read-out: half maximal effect of ethambutol toxicity to retinal ganglion cells, 24 hours incubation; viability by fluorescein diacetate"}, "[6]": {"test_system": "retinal ganglion cells", "assay": "Fura-2 intracellular calcium in retinal ganglion cells (response to NMDA and ethambutol)", "assay_type": "cell-based, rat", "conditions": "for effect on intracellular calcium, ethambutol alone: 10 μM ethambutol; for greater rise in intracellular calcium with ethambutol + NMDA than with NMDA alone: 10 μM ethambutol + 100 μM NMDA", "procedure": "FIG. 6 is a bar graph showing the effect of ethambutol and Zn^2+ on the cellular response to NMDA. Dissociated retinal ganglion cells were labeled with the calcium sensitive dye, fura-2. 100 μM NMDA were then applied by puffer, and the peak intracellular calcium concentration measured (peak response occurred between 10 and 70 seconds after NMDA exposure for all cells). The indicated drugs were then applied in the following concentrations: 10 μM ethambutol (Eth) or 100 μM Zn^2+. Values are means ± standard deviations. Ethambutol + NMDA led to a 20% greater rise in intracellular calcium then NMDA alone. (*) indicates statistical difference by an analysis of variance (ANOVA) followed Scheffe multiple comparison of means, P<0.01. Ethambutol, NMDA, and Zn^2+ simultaneously led to the same rise seen with NMDA alone. Ethambutol alone or in combination with Zn^2+ had no effect under these conditions.\n(§1) Neuronal intracellular free Ca^2+ concentration ([Ca^2+ ]i) was analyzed with fura-2 acetoxymethyl ester (fura 2-AM; Molecular Probes) following procedures known in the art. DiI labeled retinal ganglion cells were subsequently labeled with fura-2. Agonists (NMDA-glycine, glutamate, etc.) were applied by pneumatic pipettes (aperture […], 3-6 psi) placed 10-20 μm from the cells of interest. Data were analyzed via the Metamorph software package (Image 1).\nThere are several possible explanations for the finding that ethambutol toxicity to retinal ganglion cells is mediated through the NMDA receptor. A primary effect of NMDA is its known ability to increase intracellular calcium in neurons; this effect was monitored via the fluorescent dye, fura 2. Accordingly, dissociated retinal ganglion cells were labeled with fura-2. Ethambutol in concentrations from 1 nM to 1 mM was puffed onto retinal ganglion cells for periods of up to five minutes. No change was detected in 25 of 25 cells examined. As a control, 100 μM NMDA was subsequently puffed onto these cells, and in 23 of 25 cells the intracellular calcium rose to […] or higher.\nSince a rise in intracellular calcium is one of the neuron's first responses to exogenously applied glutamate or NMDA, the following experiment was performed to detect changes in intracellular calcium. Dissociated retinal ganglion cells were labeled with the calcium sensitive dye, fura 2. Fura 2 allows for measurement of cytosolic calcium concentrations.\n100 μM NMDA was applied to individual retinal ganglion cells, and the rise in intracellular calcium measured. The cells were then allowed to recover, and the intracellular calcium returned to baseline. 10 μM ethambutol and 100 μM NMDA were then simultaneously applied to the same cell (FIG. 6, second bar).\nAs a second experiment, 100 μM Zn^2+ chloride was added to the ethambutol/NMDA puffer. In the presence of 100 μM Zn^2+, 100 μM NMDA plus 10 μM ethambutol led to a rise in intracellular calcium that was indistinguishable from NMDA alone (FIG. 6, third bar). […] Accordingly, exogenous Zn^2+ reduced the NMDA/ethambutol response to the baseline NMDA response."}, "[7]": {"test_system": "retinal ganglion cell layer", "assay": "In vivo toxicity of ethambutol to the retina", "conditions": "100 mg/kg daily, orally, 30 days"}, "[8]": {"conditions": "cited from earlier work"}, "[9]": {"test_system": "all other cells of the retinal dissociations", "assay": "Viability of the other cell types in dissociated retinal preparations exposed to ethambutol", "assay_type": "cell-based, rat", "conditions": "increasing concentrations, 24 hours", "procedure": "FIG. 1 is a line graph showing dose-dependent toxicity of ethambutol to retinal ganglion cells in vitro. Dissociated rodent retinal ganglion cells were incubated with increasing concentrations of ethambutol for 24 hours. The ability of cells to take up and cleave fluorescein diacetate was used as an index of their viability and lack of injury. […] Retinal ganglion cells (open circles) and all other cells (open squares) were scored separately for viability. […] (*) indicates statistical difference by an analysis of variance (ANOVA) followed by Scheffe multiple comparison of means, P<0.01. Values were normalized to control (n=1) and represent the means ± standard deviations of four experiments; at least 150 retinal ganglion cells scored for control values in each experiment.\nInitial experiments were carried out in vitro. Freshly dissociated rat retinal preparations were exposed to increasing concentrations of ethambutol. […] Retinal cells were incubated in the presence of increasing concentrations of ethambutol, and scored for viability at 24 hours. Retinal ganglion cells were identified by the presence of DiI fluorescence.\nViability was assayed by uptake and cleavage of a second fluorescent dye, fluorescein diacetate. Ethambutol toxicity was detected only in retinal ganglion cells (FIG. 1, open circles). […]"}, "[10]": {"test_system": "retinal ganglion cells", "conditions": "10 μM ethambutol, within 24 hours"}, "[11]": {"assay": "in vitro", "conditions": "rat, retinal ganglion cells"}, "[12]": {"test_system": "NMDA-evoked [Ca2+]i responses", "assay": "Digital calcium imaging of NMDA-evoked [Ca2+]i responses", "assay_type": "cell-based", "conditions": "6 μM memantine, 200 μM NMDA", "procedure": "It has now been discovered that memantine inhibits NMDA-evoked [Ca^2+ ]i responses. […] In fact, [Ca^2+ ]i rose only to levels associated with a low degree of NMDA receptor stimulation in the presence of memantine.\nas §1"}, "[13]": {"target": "NMDA receptor", "conditions": "at the resting potential; cited from earlier work"}},
  "note": "Entries after “also recorded” stand apart in the source; their conditions may differ. Where two headings read alike, the source gives them in different places.",
  "data": [
    {"molecule": "O=c1[nH]cc(F)c(=O)[nH]1", "note": "[5-FU, 5-fluorouracil]", "values": [
      {"measurement": "toxicity to retinal ganglion cells", "setting": "[1]", "result": "toxic to retinal ganglion cells"}
    ]},
    {"molecule": "NC(CCCP(=O)(O)O)C(=O)O", "note": "(stereo not drawn) [APV, 2-amino-5-phosphonovalerate]", "values": [
      {"measurement": "retinal ganglion cell viability, drug alone", "setting": "[2]; 100 μM drug", "result": "did not affect cell viability"}
    ]},
    {"molecule": "N#Cc1cc2nc(O)c(O)nc2cc1[N+](=O)[O-]", "note": "[CNQX, 6-cyano-7-nitroquinoxaline-2,3-dione]", "values": [
      {"measurement": "protection of retinal ganglion cells from ethambutol-mediated toxicity", "setting": "[2]; 100 μM drug with 10 μM ethambutol", "result": "ineffective at preventing ethambutol-mediated cell death"},
      {"measurement": "retinal ganglion cell viability, drug alone", "setting": "[2]; 100 μM drug", "result": "did not affect cell viability"}
    ]},
    {"molecule": "CC(=O)N(O)CCCCCNC(=O)CCC(=O)N(O)CCCCCNC(=O)CCC(=O)N(O)CCCCCN", "note": "[Defororixamine, deferoxamine]", "values": [
      {"measurement": "toxicity to retinal ganglion cells", "setting": "[1]", "result": "toxic to retinal ganglion cells"}
    ]},
    {"molecule": "C[C@]12N[C@H](Cc3ccccc31)c1ccccc12", "note": "[MK-801, dizocilpine]", "values": [
      {"measurement": "protection of retinal ganglion cells from ethambutol-mediated toxicity", "setting": "[2]; 12 μM drug with 10 μM ethambutol", "result": "do protect retinal ganglion cells from ethambutol induced injury; also recorded: protect retinal ganglion cells from ethambutol-mediated toxicity"},
      {"measurement": "retinal ganglion cell viability, drug alone", "setting": "[2]; 12 μM drug", "result": "did not affect cell viability"},
      {"measurement": "effect on the concentration of ethambutol necessary to kill mycobacterial strains", "setting": "[3]; 12 μM agent", "result": "had no effect"},
      {"measurement": "effect on the cytotoxic effect of 5-FU, Defororixamine and Tamoxifen on retinal ganglion cells", "setting": "[1]; drug + MK801, 24 hours", "result": "prevented"}
    ]},
    {"molecule": "CC/C(=C(\\c1ccccc1)c1ccc(OCCN(C)C)cc1)c1ccccc1", "note": "[Tamoxifen]", "values": [
      {"measurement": "toxicity to retinal ganglion cells", "setting": "[1]; drug alone, 24 hours", "result": "toxic to retinal ganglion cells"}
    ]},
    {"molecule": "CC[C@@H](CO)NCCN[C@@H](CC)CO", "note": "[ethambutol]", "values": [
      {"measurement": "effect on the level of endogenous glutamate", "setting": "[4]", "result": "not affected"},
      {"measurement": "EC50", "setting": "[5]", "result": 10, "unit": "µM"},
      {"measurement": "change in intracellular calcium, ethambutol alone", "setting": "[6]; 1 nM to 1 mM puffed for up to five minutes, 25 of 25 cells", "result": "No change"},
      {"measurement": "effect on intracellular calcium, ethambutol alone", "setting": "[6]", "result": "had no effect on intracellular calcium"},
      {"measurement": "greater rise in intracellular calcium with ethambutol + NMDA than with NMDA alone", "setting": "[6]", "result": "≥ 20", "unit": "%"},
      {"measurement": "greater rise in intracellular calcium with ethambutol + NMDA than with NMDA alone", "setting": "[6]; listed as Ethambutol", "result": 20, "unit": "%"},
      {"measurement": "effect on intracellular calcium, ethambutol alone", "setting": "[6]; listed as Ethambutol", "result": "had no effect"},
      {"measurement": "loss of cells in the retinal ganglion cell layer versus control", "setting": "[7]", "result": 18, "unit": "%"},
      {"measurement": "other ocular pathology", "setting": "[7]", "result": "no other ocular pathology was detected"},
      {"measurement": "patients developing optic neuropathy", "setting": "[8]; patients taking ethambutol", "result": "up to 15%"},
      {"measurement": "patients with permanent visual loss", "setting": "[8]; patients taking ethambutol", "result": "up to 3%"},
      {"measurement": "concentration", "setting": "[8]; read-out: concentration in the cerebrospinal fluid, patients taking the drug orally", "result": 10, "unit": "µM"},
      {"measurement": "ethambutol toxicity in other cell types", "setting": "[9]", "result": "No ethambutol toxicity"},
      {"measurement": "retinal ganglion cells that died compared to sibling control cultures", "setting": "[10]", "result": "Approximately half"},
      {"measurement": "cytotoxicity at 24 h, 10 µM", "setting": "[11]", "result": "≥ 50", "unit": "%"}
    ]},
    {"molecule": "CC12CC3CC(C)(C1)CC(N)(C3)C2.Cl", "note": "[memantine, 1-amino-3,5-dimethyladamantane hydrochloride]", "values": [
      {"measurement": "protection of retinal ganglion cells from ethambutol-mediated toxicity", "setting": "[2]; 12 μM drug with 10 μM ethambutol, hydrochloride", "result": "do protect retinal ganglion cells from ethambutol induced injury; also recorded: protect retinal ganglion cells from ethambutol-mediated toxicity"},
      {"measurement": "retinal ganglion cell viability, drug alone", "setting": "[2]; 12 μM drug", "result": "did not affect cell viability"},
      {"measurement": "effect on the concentration of ethambutol necessary to kill mycobacterial strains", "setting": "[3]; 12 μM agent", "result": "had no effect"},
      {"measurement": "effect on excessive influx of calcium elicited by NMDA", "setting": "[12]", "result": "largely prevent"},
      {"measurement": "Ki", "setting": "[13]", "result": "1 to 2", "unit": "µM"}
    ]},
    {"molecule": "COCCOC(=O)C1=C(C)NC(C)=C(C(=O)OC(C)C)C1c1cccc([N+](=O)[O-])c1", "note": "(stereo not drawn) [nimodipine]", "values": [
      {"measurement": "protection of retinal ganglion cells from ethambutol-mediated toxicity", "setting": "[2]; 100 nM drug with 10 μM ethambutol", "result": "do protect retinal ganglion cells from ethambutol induced injury; also recorded: protect retinal ganglion cells from ethambutol-mediated toxicity"},
      {"measurement": "retinal ganglion cell viability, drug alone", "setting": "[2]; 100 nM drug", "result": "did not affect cell viability"},
      {"measurement": "effect on the concentration of ethambutol necessary to kill mycobacterial strains", "setting": "[3]; 100 nM agent", "result": "had no effect"}
    ]}
  ]
}
